The numbers were not newly measured in publication PMC7403315, “Cyclic peptide FXII inhibitor provides safe anticoagulation in a thrombosis model and in artificial lungs” (Nature Communications, 2020), which cites them from elsewhere.

The conditions of this data set: human; cited from earlier work.

Consider `CC(C)C[C@@H]1NC(=O)[C@H](CCC(N)=O)NC(=O)[C@H](CCCNC(=N)N)NC(=O)[C@@H]2CSCCC(=O)N3CN(CN(C3)C(=O)CCSC[C@H](NC(=O)[C@@H](N)CCCNC(=N)N)C(=O)N[C@@H](Cc3ccccc3)C(=O)N[C@@H](CCCNC(=N)N)C(=O)N[C@@H](CC(C)C)C(=O)N3CCC[C@H]3C(=O)N2)C(=O)CCSC[C@@H](C(=O)N[C@@H](CCCNC(=N)N)C(N)=O)NC(=O)[C@H](CCCNC(=N)N)NC1=O` [FXII618], for which the “t1/2 of cleavage of N-terminal Arg1 by plasma proteases” value is “around 4 h”.
